Reference: patent US11252960B2 (KIMBERLY-CLARK WORLDWIDE, INC., priority 2017, dated 2022)

Assays:
[1] = 25° C., cited from earlier work; for Solubility of Parabens, Ethanol: solvent ethanol; for Solubility of Parabens, Propylene glycol: solvent propylene glycol; for Solubility of Parabens, Water: solvent water
[2] = test system: Staphylococcus aureus (ATCC 6538); assay: Anti-bacterial Minimum Inhibitory Concentration (MIC) Method, microbroth dilution; assay type: cell-based; details: Table 4; CAMHB, 37° C., 24 hours, pH 4.5-adjusted stock
Method: (§1) Anti-Bacterial and Anti-Fungal Minimum Inhibitory Concentration (MIC) Method Method: Microbroth Dilution Method (96-well format). Test item: […] Solvent: Sterile MilliQ water and 0.1 M Citrate Buffer pH 4.5 Media used: • Bacterial: Cation-Adjusted Mueller-Hinton Broth (CAMHB) • Fungi: RPMI-1640 […] Fungi: • Incubation Temperature: • 25° C. (Candida albicans) • 35° C. (Aspergillus brasiliensis) • Incubation Time: 48 hours • Inoculum Size: 5×10^4 cfu/mL • Strains: • Candida albicans (ATCC 10231) • Aspergillus brasiliensis (ATCC 16404) • End point: Inhibition of growth, Spectrophotometer Reading @ 600 nm • Reference standards: […] All solubilized and pH 4.5-adjusted test compounds were filter-sterilized before subjecting to MIC study. […] All the strains were inoculated on their respective agar medium and incubated under conditions/durations detailed above. • Preparation of inoculum: • The bacterial colony suspension in 0.85% saline was adjusted to 1 McFarland's standard using […] which was further diluted to 1:100 in CAMHB. The fungal suspension for inoculation was prepared in 0.85% saline from 6 days old culture (for mold, A. brasiliensis) and from 2 days old culture (for yeast, C. albicans) from Sabouraud Dextrose agar medium. […] Micro titer plates were prepared as per the CLSI recommendations. One hundred and seventy five microliters of Cation-adjusted Muller Hinton Broth (CAMHB) was added to the first column of a 96 well flat bottom plate, which is the media control. Second column is for the stocks of the test compounds and reference standards from which dilutions are made. Then 175 μL of CAMHB was added to the 5th, 8th and 11th columns, 75 μL of CAMHB to the 4th, 7th and 10th columns and 50 μL of CAMHB to the 3rd, 6th and 9th columns and the last column was the organism control.

[3] = test system: Pseudomonas aeruginosa (ATCC 9027); assay: as above; assay type: cell-based; details: Table 4; CAMHB, 37° C., 24 hours, pH 4.5-adjusted stock
Method: as §1

[4] = test system: Escherichia coli (ATCC 8739); assay: as above; assay type: cell-based; details: Table 4; CAMHB, 37° C., 24 hours, pH 4.5-adjusted stock
Method: as §1

[5] = test system: Burkholderia cepacia (ATCC 25416); assay: as above; assay type: cell-based; details: Table 4; CAMHB, 37° C., 24 hours, pH 4.5-adjusted stock
Method: as §1

[6] = test system: Candida albicans (ATCC 10231); assay: Anti-fungal Minimum Inhibitory Concentration (MIC) Method, microbroth dilution; assay type: cell-based; details: Table 4; RPMI-1640, 25° C., 48 hours, pH 4.5-adjusted stock
Method: (§2) Anti-Bacterial and Anti-Fungal Minimum Inhibitory Concentration (MIC) Method Method: Microbroth Dilution Method (96-well format). Test item: […] Solvent: Sterile MilliQ water and 0.1 M Citrate Buffer pH 4.5 Media used: • Bacterial: Cation-Adjusted Mueller-Hinton Broth (CAMHB) • Fungi: RPMI-1640 Fungi: • Incubation Temperature: • 25° C. (Candida albicans) • 35° C. (Aspergillus brasiliensis) • Incubation Time: 48 hours • Inoculum Size: 5×10^4 cfu/mL • Strains: • Candida albicans (ATCC 10231) • Aspergillus brasiliensis (ATCC 16404) • End point: Inhibition of growth, Spectrophotometer Reading @ 600 nm • Reference standards: […] All solubilized and pH 4.5-adjusted test compounds were filter-sterilized before subjecting to MIC study. […] All the strains were inoculated on their respective agar medium and incubated under conditions/durations detailed above. • Preparation of inoculum: • The bacterial colony suspension in 0.85% saline was adjusted to 1 McFarland's standard using […] which was further diluted to 1:100 in CAMHB. The fungal suspension for inoculation was prepared in 0.85% saline from 6 days old culture (for mold, A. brasiliensis) and from 2 days old culture (for yeast, C. albicans) from Sabouraud Dextrose agar medium. […] Micro titer plates were prepared as per the CLSI recommendations. One hundred and seventy five microliters of Cation-adjusted Muller Hinton Broth (CAMHB) was added to the first column of a 96 well flat bottom plate, which is the media control. Second column is for the stocks of the test compounds and reference standards from which dilutions are made. Then 175 μL of CAMHB was added to the 5th, 8th and 11th columns, 75 μL of CAMHB to the 4th, 7th and 10th columns and 50 μL of CAMHB to the 3rd, 6th and 9th columns and the last column was the organism control.

[7] = test system: Aspergillus brasiliensis (ATCC 16404); assay: as above; assay type: cell-based; details: Table 4; RPMI-1640, 35° C., 48 hours, pH 4.5-adjusted stock
Method: as §2

[8] = assay type: physicochemical; details: pH 4.5
Method: This water was used as a test media for determining the solubility of test/reference items. Stock solutions of concentration 1 mg/mL for test items/reference items was prepared in methanol. The stock solution will be used for preparation of calibration curve standards. Calibration curve of test/reference items was prepared by serially dilution consisting of 4-5-6 concentrations in 96 well format. […] The method was as follows: Calibration curve of test items were prepared by serial dilution consisting of 8 concentrations. […] Water, 50:50). […] 40 mg of test items were weighed into tubes. […] The initial pH of the solubility samples were recorded. […] Then, the solutions were observed visually for any precipitation. […] An aliquot of the supernatant were diluted with equal volume of methanol. […] The samples were then transferred to UV plate and scanned at λmax of that particular test/reference item. Compound #12 was transferred to auto-sampler vials and submitted for LC-MS/MS analysis.

[9] = Determination of Dissociation Constant (pKa) by Potentiometric Titration Method; assay type: physicochemical; details: pH 4.5, Table 3, 0.1 mg/ml, 22° C.
Method: Potentiometric Titration Method: A calibrated pH meter was used for the assay. 50 mL solution of each test/reference item solution (0.1 mg/mL) was added to four beakers (two for acid titration and two for base titration). 0.1 N Sodium hydroxide (NaOH) solution was prepared as titrant solution. The pH electrode was placed into the beaker containing test/reference item solution. The initial pH of the solution will be recorded. 100 μL of 0.1 N NaOH was added successively with stirring and the pH at each addition was recorded. Base titrations were carried out individually in duplicates until a sudden shift in the pH was observed.

| SMILES | Solubility of Parabens, Ethanol [1] [% w/w] | Solubility of Parabens, Propylene glycol [1] [% w/w] | Solubility of Parabens, Water [1] [% w/w] | MIC (%) S. Aureus [2] [%] | MIC (%) P. aeruginosa [3] [%] | MIC (%) E. coli [4] [%] | MIC (%) B. cepacia [5] [%] | MIC (%) C. albicans [6] [%] | MIC (%) A. brasiliensis [7] [%] | Solubility (wt %) [8] [wt %] | pKa [9] |
| --- | --- | --- | --- | --- | --- | --- | --- | --- | --- | --- | --- |
| CCOC(=O)c1ccc(O)cc1 [Ethylparaben] | 41 | 20 | 0.11 |  |  |  |  |  |  |  |  |
| CCCCOC(=O)c1ccc(O)cc1 [Butylparaben] | 68 | 49 | 0.02 |  |  |  |  |  |  |  |  |
| O=C(OCCCO)c1ccccc1 [Compound 11, Benzoic acid 3-hydroxy-propyl ester] |  |  |  | 0.272 | >0.272 | 0.272 | 0.136 | 0.136 | 0.068 | 0.55 | > 7 |
